For three compounds, inhibition and IC50 results are on record in ChEMBL document CHEMBL1134225, “Potent synthetic inhibitors of tyrosyl tRNA synthetase derived from C-pyranosyl analogues of SB-219383” (Bioorg Med Chem Lett, 2001).

A short description of assay [1]: Inhibitory activity (3 uM) against Staphylococcus aureus tyrosyl tRNA synthetase (YRS) using aminoacylation assay.
The nature of assay [2]: Inhibitory activity against Staphylococcus aureus tyrosyl tRNA synthetase (YRS) using aminoacylation assay; NI = No inhibition.
Assay [3] is described as follows: Inhibitory activity against Staphylococcus aureus tyrosyl tRNA synthetase (YRS) using aminoacylation assay.

SMILES strings stand for the structures.

`N[C@@H](Cc1ccc(O)cc1)C(=O)N[C@H](C(=O)O)[C@@H]1OC[C@H](O)[C@@H](O)[C@H]1O` gave an inhibition in assay [1] of 71%.

Consider `N[C@@H](Cc1ccc(O)cc1)C(=O)NC(C(=O)O)[C@@H]1O[C@H](CO)[C@@H](O)[C@H](O)[C@H]1O` (stereo partly drawn), for which the IC50 entry in assay [2] is “Not Active”.

On to `N[C@@H](Cc1ccc(O)cc1)C(=O)N[C@H](C(=O)O)[C@@H]1OC[C@H](O)[C@H](O)[C@H]1O`, for which the IC50 in assay [3] was determined as 100 nM.
